The record followed here is patent US11584747B2, “Substituted pyridopyrimidinonyl compounds useful as T cell activators” (BRISTOL-MYERS SQUIBB COMPANY, priority 2019, dated 2023).

Structures are written as SMILES. Read-outs that look alike come from different tables or passages of the source.

For one assay, the target named is human DGKζ (Homo sapiens (Human), UniProt Q13574). The assay is described as follows: DGKζ LIPGLO assay (extruded liposome substrate, ADP-Glo luminescence). Format: biochemical. The note with it: liposome assay; read-out: DGK zeta LIPGLO IC50.
Chain of human DGKζ (Q13574 other isoform, or with tags, fused parts or gaps): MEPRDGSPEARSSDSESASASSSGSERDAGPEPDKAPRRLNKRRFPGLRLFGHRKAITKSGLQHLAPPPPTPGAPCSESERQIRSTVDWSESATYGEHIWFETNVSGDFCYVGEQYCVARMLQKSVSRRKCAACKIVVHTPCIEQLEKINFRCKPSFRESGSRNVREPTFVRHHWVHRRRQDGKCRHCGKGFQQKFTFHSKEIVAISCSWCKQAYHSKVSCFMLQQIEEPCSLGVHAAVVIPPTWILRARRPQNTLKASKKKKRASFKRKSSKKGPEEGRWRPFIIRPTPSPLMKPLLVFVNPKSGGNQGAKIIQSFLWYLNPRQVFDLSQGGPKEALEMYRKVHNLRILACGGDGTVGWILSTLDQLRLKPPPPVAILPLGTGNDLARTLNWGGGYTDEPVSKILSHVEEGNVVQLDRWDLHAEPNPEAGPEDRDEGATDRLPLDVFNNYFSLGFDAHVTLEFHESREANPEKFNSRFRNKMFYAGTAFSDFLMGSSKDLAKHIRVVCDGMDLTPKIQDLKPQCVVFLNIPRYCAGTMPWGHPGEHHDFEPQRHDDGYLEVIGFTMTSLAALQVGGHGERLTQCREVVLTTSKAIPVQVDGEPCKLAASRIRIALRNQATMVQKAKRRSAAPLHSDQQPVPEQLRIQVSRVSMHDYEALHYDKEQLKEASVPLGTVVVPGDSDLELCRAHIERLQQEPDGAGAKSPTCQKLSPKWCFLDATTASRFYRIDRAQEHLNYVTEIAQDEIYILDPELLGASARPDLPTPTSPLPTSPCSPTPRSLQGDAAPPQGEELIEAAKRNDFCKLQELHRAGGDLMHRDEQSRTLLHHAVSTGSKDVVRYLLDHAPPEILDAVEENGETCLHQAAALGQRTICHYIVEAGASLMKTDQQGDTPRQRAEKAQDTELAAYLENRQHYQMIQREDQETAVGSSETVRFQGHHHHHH
Assay [1] has as its target T1, human DGKα (Homo sapiens (Human), UniProt P23743). The assay is described as follows: DGKα LIPGLO assay (extruded liposome substrate, ADP-Glo luminescence). It is filed as biochemical. The note with it: liposome assay; read-out: DGK alpha LIPGLO IC50.
A further assay concerns whole blood (pERK). The assay is described as follows: pERK Whole Blood assay (Table A; no whole-blood pERK method described). Format: cell-based. The conditions noted are these: normalized.
The test system of assay [2] is human venous whole blood (IFN-γ). The assay is described as follows: Human whole blood IFN-γ assay. Format: cell-based. The note with it: whole blood, normalized to 3 μM reference compound as 100% activation, read-out: IFN-γ Whole Blood Normalized EC50. The method, then:
Human venous whole blood (22.5 μL per well), obtained from healthy donors, was pre-treated with compounds for one hour at 37° C. in a humidified 95% air/5% CO2 incubator. The blood was stimulated with 2.5 μL anti-human CD3 and anti-CD28 mAb at a final concentration of 1 μg/mL each for 24 hours at 37° C. IFN-γ in the supernatants was measured using AlphLISA kit (Cat #AL217).

Assay [3] addresses T1, human DGKα. The assay is described as follows: DGKα ADPGLO assay (detergent/lipid micelle substrate). It is filed as biochemical. The conditions noted are these: truncated DGK alpha; read-out: DGK alpha ADPGLO (Truncated) IC50. How it is done:
DGK Alpha ADPGLO (Truncated) IC50 (uM)
The detergent/lipid micelle was prepared by combining 15 g phosphatidylserine (Avanti 840035P) and 1 g diacylglycerol (8008110) and dissolving into 150 mL chloroform in a 2 L round bottom flask. Chloroform was removed under high vacuum by rotary evaporation. […] The lipid/detergent solution was split into 5 mL aliquots and stored at −80° C.

T1 sequence (P23743 whole entry, looked up): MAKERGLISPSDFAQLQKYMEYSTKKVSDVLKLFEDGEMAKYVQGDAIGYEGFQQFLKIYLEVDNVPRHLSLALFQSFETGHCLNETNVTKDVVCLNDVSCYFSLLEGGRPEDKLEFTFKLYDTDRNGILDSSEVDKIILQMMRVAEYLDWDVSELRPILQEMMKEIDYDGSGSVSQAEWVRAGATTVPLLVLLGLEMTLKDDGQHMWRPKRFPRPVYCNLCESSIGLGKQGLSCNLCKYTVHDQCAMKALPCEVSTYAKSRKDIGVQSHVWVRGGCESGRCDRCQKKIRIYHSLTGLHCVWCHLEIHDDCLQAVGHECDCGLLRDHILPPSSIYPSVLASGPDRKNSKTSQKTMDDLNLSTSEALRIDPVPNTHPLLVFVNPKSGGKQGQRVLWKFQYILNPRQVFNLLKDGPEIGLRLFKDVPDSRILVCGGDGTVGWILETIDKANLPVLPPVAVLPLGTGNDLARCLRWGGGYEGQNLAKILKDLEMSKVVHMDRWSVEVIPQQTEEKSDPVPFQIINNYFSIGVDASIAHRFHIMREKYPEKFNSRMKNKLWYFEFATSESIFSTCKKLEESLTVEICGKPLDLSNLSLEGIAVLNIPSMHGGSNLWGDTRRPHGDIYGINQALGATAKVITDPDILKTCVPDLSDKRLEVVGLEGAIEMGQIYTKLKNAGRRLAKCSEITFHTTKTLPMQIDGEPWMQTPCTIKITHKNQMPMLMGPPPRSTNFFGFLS

`C[C@@H]1CN(c2nc(=O)n(C)c3ccc(C#N)nc23)[C@@H](C)CN1C(c1ccc(F)cc1)c1nc(C(C)(C)C)no1` (single isomer, unassigned) [Example 108]: the 50% inhibitory concentration (IC50) at human DGKζ stood at 50 nM; at human DGKα [1], 400 nM; with whole blood (pERK) it was 28 nM. For the same compound, the EC50 in assay [2] (Homo sapiens) was found to be 57 nM.

As to `CC[C@@H]1CN(c2nc(=O)n(C)c3ccc(C#N)nc23)[C@@H](C)CN1C(C)c1ccc(OC)cc1` (single isomer, unassigned) [Example 56], the values for the IC50 on human DGKζ, on human DGKα [1] and with whole blood (pERK) were 11 nM, 37 nM and 200 nM, respectively. Moreover, in assay [2], the EC50 worked out at 39 nM.

With `CC(c1ccc(OC(F)(F)F)cc1F)N1C[C@H](C)N(c2nc(=O)n(C)c3ccc(C#N)nc23)C[C@H]1C` (single isomer, unassigned) [Example 143], the half-maximal inhibitory concentration (IC50) on human DGKζ came to 2120 nM; on human DGKα [1], 1330 nM; with whole blood (pERK), 1140 nM.

Consider `CC(c1ccc(OC(F)(F)F)cc1)N1C[C@H](C)N(c2nc(=O)n(C)c3ccc(C#N)nc23)C[C@H]1CO` (single isomer, unassigned) [Example 183], for which the values for the IC50 on human DGKζ, on human DGKα [1] and in the assay with whole blood (pERK) were 2690 nM, 83 nM and 270 nM, respectively. The EC50 in assay [2] stood at 2330 nM.

For the compound `CC(c1ccc(F)c(F)c1)N1C[C@H](C)N(c2nc(=O)n(C)c3ccc(C#N)nc23)C[C@H]1C` (single isomer, unassigned) [Example 149], the IC50 turned out to be 1180 nM on human DGKζ, 4560 nM on human DGKα [1] and 1950 nM in the assay with whole blood (pERK). Also, the EC50 in assay [2] worked out at 8060 nM.

As to `CC[C@H]1CN(C(c2ccc(F)cc2)c2ccon2)[C@H](CC)CN1c1nc(=O)n(C)c2ccc(C#N)nc12` (single isomer, unassigned) [Example 35], the values for the IC50 at human DGKζ, at human DGKα [1] and in the assay on whole blood (pERK) were 120 nM, 30 nM and 150 nM, respectively. In addition, the EC50 in assay [2] was found to be 120 nM.

In the case of `CC[C@H]1CN(C(C)c2ccc3c(c2)OC(F)(F)O3)[C@H](CC)CN1c1nc(=O)n(C)c2ccc(C#N)nc12` (single isomer, unassigned) [Example 14], the IC50 on human DGKζ amounted to 36 nM; on human DGKα [1], 350 nM; in the assay with whole blood (pERK), 900 nM. In addition, the EC50 in assay [2] was determined as 94 nM.

For the compound `CC(c1ccc(Cl)cc1F)N1C[C@H](C)N(c2nc(=O)n(C)c3ccc(C#N)nc23)C[C@H]1C` (single isomer, unassigned) [Example 147], the IC50 at human DGKζ came to 1130 nM; on human DGKα [1], 1460 nM; in the assay with whole blood (pERK), 1000 nM.

As for `COC[C@@H]1CN(c2nc(=O)n(C)c3ccc(C#N)nc23)[C@@H](C)CN1C(C)c1ccc(OC(F)(F)F)cc1` (single isomer, unassigned) [Example 176], the 50% inhibitory concentration (IC50) is 110 nM on human DGKζ, 180 nM at human DGKα [1] and 210 nM with whole blood (pERK). Besides, the EC50 in assay [2] came out at 190 nM.

With `C[C@@H]1CN(c2nc(=O)n(C)c3ccc(C#N)nc23)[C@@H](C)CN1C(c1ccc(F)cc1)c1ccc(F)cc1` [Example 124, 4-((2S,5R)-4-(bis(4-fluorophenyl)methyl)-2,5-dimethylpiperazin-1-yl)-1-methyl-2-oxo-1,2-dihydropyrido[3,2-d]pyrimidine-6-carbonitrile], the IC50 worked out at 2560 nM on human DGKζ, 560 nM on human DGKα [1] and 270 nM with whole blood (pERK). Besides, the EC50 in assay [2] (Homo sapiens) turned out to be 500 nM.

`CC[C@H]1CN(C(C)c2ccc(OCC3CC3)cc2)[C@H](CC)CN1c1nc(=O)n(C)c2ccc(C#N)nc12` (single isomer, unassigned) [Example 23]: the IC50 is 29 nM at human DGKζ, 58 nM on human DGKα [1] and 86 nM in the assay with whole blood (pERK). For the same compound, in assay [2], the concentration giving a half-maximal response (EC50) is 11 nM.

In the case of `C[C@@H]1CN(c2nc(=O)n(C)c3ccc(C#N)nc23)[C@@H](C)CN1C(c1ccc(F)cc1)c1ccon1` (single isomer, unassigned) [Example 163], the half-maximal inhibitory concentration (IC50) was determined as 460 nM on human DGKζ, 38 nM at human DGKα [1] and 490 nM with whole blood (pERK). Besides, the concentration giving a half-maximal response (EC50) in assay [2] was 250 nM.

In the case of `CC[C@@H]1CN(c2nc(=O)n(C)c3ccc(C#N)nc23)[C@@H](C)CN1C(c1ccc(F)cc1)c1ccc(C2CC2)cn1` (single isomer, unassigned) [Example 75], the results for the IC50 at human DGKζ, on human DGKα [1] and in the assay with whole blood (pERK) were 33 nM, 39 nM and 100 nM, respectively. In addition, the EC50 in assay [2] was 30 nM.

Turning to `C[C@@H]1CN(c2nc(=O)n(C)c3ccc(C#N)nc23)[C@@H](C)CN1C(c1ccc(F)cc1)c1nc(C2CC2)no1` (single isomer, unassigned) [Example 107], the 50% inhibitory concentration (IC50) was 40 nM on human DGKζ, 130 nM at human DGKα [1] and 120 nM with whole blood (pERK). Besides, in assay [2], the 50% effective concentration (EC50) was found to be 49 nM.

For the compound `COC[C@@H]1CN(c2nc(=O)n(C)c3ccc(C#N)nc23)[C@@H](C)CN1C(C)c1ccc(OC(F)(F)F)cc1` (single isomer, unassigned) [Example 177], the values for the concentration for half-maximal inhibition (IC50) on human DGKζ, at human DGKα [1] and in the assay on whole blood (pERK) were 770 nM, 610 nM and 520 nM, respectively. The EC50 in assay [2] was 1710 nM.

As to `CC(c1ccc(C2CC2)cc1F)N1C[C@H](C)N(c2nc(=O)n(C)c3ccc(C#N)nc23)C[C@H]1C` (single isomer, unassigned) [Example 168], the half-maximal inhibitory concentration (IC50) at human DGKζ was 150 nM; on human DGKα [1], 230 nM; in the assay with whole blood (pERK), 220 nM. Moreover, the EC50 in assay [2] was determined as 110 nM.

For `CC[C@H]1CN(C(C)c2ccc(C(F)(F)F)cc2)[C@H](CC)CN1c1nc(=O)n(C)c2ccc(C#N)nc12` (single isomer, unassigned) [Example 20], the half-maximal inhibitory concentration (IC50) on human DGKζ stood at 36 nM; at human DGKα [1], 140 nM; in the assay with whole blood (pERK), 130 nM. Moreover, in assay [2], the half-maximal effective concentration (EC50) was determined as 60 nM.

On to `CC(c1ccc(C(F)(F)F)cc1F)N1C[C@H](C)N(c2nc(=O)n(C)c3ccc(C#N)nc23)C[C@H]1C` (single isomer, unassigned) [Example 151], for which the results for the 50% inhibitory concentration (IC50) on human DGKζ, at human DGKα [1] and in the assay on whole blood (pERK) were 830 nM, 3460 nM and 1870 nM, respectively.

As for `CC[C@H]1CN(C(C)c2ccc(C3CC3)cc2F)[C@H](CC)CN1c1nc(=O)n(C)c2ccc(C#N)nc12` (single isomer, unassigned) [Example 40], the figures for the IC50 on human DGKζ, at human DGKα [1] and with whole blood (pERK) were 41 nM, 320 nM and 10 nM, respectively. The concentration for a half-maximal effect (EC50) in assay [2] was 21 nM.

With `CC[C@@H]1CN(c2nc(=O)n(C)c3ccc(C#N)nc23)[C@@H](C)CN1C(C)c1ccc(OC(F)(F)F)cc1F` (single isomer, unassigned) [Example 81], the results for the IC50 at human DGKζ, on human DGKα [1] and with whole blood (pERK) were 130 nM, 300 nM and 99 nM, respectively. Further, the EC50 in assay [2] was determined as 57 nM.

In the case of `CC(c1ccc(OC(F)(F)F)cc1)N1C[C@H](C)N(c2nc(=O)n(C)c3ccc(C#N)nc23)C[C@H]1C` (single isomer, unassigned) [Example 131], the 50% inhibitory concentration (IC50) at human DGKζ is 130 nM; at human DGKα [1], 10 nM; in the assay with whole blood (pERK), 170 nM. The half-maximal effective concentration (EC50) in assay [2] is 360 nM.

Consider `CCC(c1ccc(C)cc1)N1C[C@H](CC)N(c2nc(=O)n(C)c3ccc(C#N)nc23)C[C@H]1CC` (stereo partly drawn) [Example 236, 4-((2S,5R)-2,5-diethyl-4-(1-(p-tolyl)propyl)piperazin-1-yl)-1-methyl-2-oxo-1,2-dihydropyrido[3,2-d]pyrimidine-6-carbonitrile], for which the values for the IC50 at human DGKα [3], at human DGKζ and with whole blood (pERK) were 9 nM, 58 nM and 44 nM, respectively. Further, the half-maximal effective concentration (EC50) in assay [2] amounted to 12 nM.

With `CCC(c1ccc(OCC2CC2)cc1F)N1C[C@H](CC)N(c2nc(=O)n(C)c3ccc(C#N)nc23)C[C@H]1CC` (stereo partly drawn) [Example 199, 4-((2S,5R)-4-(1-(4-(cyclopropylmethoxy)-2-fluorophenyl)propyl)-2,5-diethylpiperazin-1-yl)-1-methyl-2-oxo-1,2-dihydropyrido[3,2-d]pyrimidine-6-carbonitrile], the IC50 at human DGKα [3] was determined as 630 nM; at human DGKζ it was 920 nM; in the assay with whole blood (pERK) it was 11300 nM. The 50% effective concentration (EC50) in assay [2] came out at 2060 nM.

Consider `CC(c1ccc(F)cc1F)N1C[C@H](C)N(c2nc(=O)n(C)c3ccc(C#N)nc23)C[C@H]1C` (single isomer, unassigned) [Example 144], for which the figures for the IC50 on human DGKζ, on human DGKα [1] and with whole blood (pERK) were 46 nM, 28 nM and 65 nM, respectively.

Turning to `CCC(c1ccc(OC(F)F)cc1F)N1C[C@H](CC)N(c2nc(=O)n(C)c3ccc(C#N)nc23)C[C@H]1CC` (stereo partly drawn) [Example 232, 4-((2S,5R)-4-(1-(4-(difluoromethoxy)-2-fluorophenyl)propyl)-2,5-diethylpiperazin-1-yl)-1-methyl-2-oxo-1,2-dihydropyrido[3,2-d]pyrimidine-6-carbonitrile], the IC50 on human DGKα [3] was 2 nM; at human DGKζ it was 13 nM; with whole blood (pERK), 44 nM. Also, the concentration for a half-maximal effect (EC50) in assay [2] turned out to be 44 nM.

Turning to `CC[C@H]1CN(C(C)c2cccc(OC(F)F)n2)[C@H](CC)CN1c1nc(=O)n(C)c2ccc(C#N)nc12` (stereo partly drawn) [Example 240, 4-((2S,5R)-4-(1-(6-(difluoromethoxy)pyridin-2-yl)ethyl)-2,5-diethylpiperazin-1-yl)-1-methyl-2-oxo-1,2-dihydropyrido[3,2-d]pyrimidine-6-carbonitrile], the concentration for half-maximal inhibition (IC50) is 73 nM on human DGKα [3], 110 nM at human DGKζ and 290 nM in the assay with whole blood (pERK). Further, the EC50 in assay [2] was found to be 270 nM.
